Reference: patent publication US20260315434A1, “USE OF GUAIACOL SESQUITERPENE LACTONE DERIVATIVES” (NANJING UNIVERSITY OF CHINESE MEDICINE, priority 2023, published 2026)

Legend:
[1] = target: farnesyltransferase (FTase); conditions: cited from earlier work
serum ALT and AST = experiment: CCl4-induced acute liver injury, serum ALT and AST; type: in vivo, C57BL/6 mice
Protocol: They were acclimated for 7 days before use in experiments.
Mice were randomly assigned to groups. One group was arbitrarily designated as the normal group, while the remaining groups served as model group, Compound 1 group, Hydrochloride 20 group, Fumarate 21 group, and Silibinin group, with 6 mice per group. Except for the normal group receiving 10 mL olive oil/kg via injection, all other mice received 0.5 mL CCl4+9.5 mL olive oil/kg body weight via intraperitoneal injection, maintaining a CCl4 to olive oil ratio of 1:19. Starting from day 1 of modeling, Compound 1, Hydrochloride 20, and Fumarate 21 were administered orally for 3 consecutive days.
The blood was allowed to stand at room temperature for 2 hours, then centrifuged at 3000 rpm for 20 minutes. Serum was aspirated, aliquoted, and stored at −70° C. for future use. After blood collection, euthanize mice by cervical dislocation. Perform laparotomy to remove the liver. Rinse twice with pre-chilled PBS. Excise the left hepatic lobe tissue. […] Store remaining tissue at −70° C. for future use.
Serum AST and ALT Assay: Use 10 μL of each sample for testing. Determine mouse serum AST and ALT levels according to the operating manual. Measure absorbance at 510 nm using an enzyme-linked immunosorbent assay (ELISA) reader. Calculate sample concentration (U/L) based on the standard curve.
Data Statistics: All data are expressed as means f standard error of the mean (S.E.M.). Differences were analyzed for significance using analysis of variance (ANOVA). For groups showing significant differences in ANOVA, one-way ANOVA followed by Dunnett's test was performed to compare intergroup differences.

[2] = system: renal injury markers (Kim-1, Ngal) in kidney tissue; experiment: Diabetic nephropathy, renal injury marker mRNA; type: in vivo, C57/BL6J mice; conditions: 8 weeks
Protocol: Experimental animals: C57/BL6J mice, male, 12 weeks old, purchased from GemPharmatech LLC. Production license number: SCXK(Su)2023-0009. […] Animals were acclimated for 7 days before use in experiments.
Administer streptozotocin (STZ, 50 mg/kg) via intraperitoneal injection for 5 consecutive days. After 72 hours, select mice with fasting blood glucose levels exceeding 16.7 mmol/L as model mice. […] Model mice were fed a high-fat diet (HFD) providing 60% of energy from fat for 8 weeks. After 8 weeks, gavage administration commenced.
Specimen Collection: One hour after the last drug administration, enucleate the eyeball to collect blood. Allow blood to stand at room temperature for 2 hours, then centrifuge at 3000 rpm for 20 minutes. Aspirate the serum, aliquot it, and store at −70° C. for future use. After blood collection, euthanize the mice by cervical dislocation. Open the abdominal cavity, remove the kidneys, and dissect away the perirenal fat and capsule. Store the tissue at −70° C. for future use.

H22 cells = experiment: Antitumor efficacy combined with anti-PD-L1 monoclonal antibody, H22 xenograft; type: in vivo, Balb/c mice; conditions: 2 weeks; for combination with anti-PD-L1 monoclonal antibody vs. single agents, H22: 2.5 mg/kg/day i.p., result in words; for Tumor inhibition rate (%) / Tumor weight: dose 2.5 (head μmol/kg/day; text 2.5 mg/kg/day), i.p. daily, H22
Protocol: H22 cells were cultured and expanded in vitro. An appropriate number of cells in the logarithmic growth phase was resuspended in a mixture of serum-free RPMI 1640 medium and Matrigel (1:1). Under aseptic conditions, prepare a2×10^6/100 μL cell suspension. Using a syringe, inject 100 μL of the cell suspension subcutaneously into the left forelimb axilla of male Balb/c mice. […] Compounds 20 and 103 were administered daily via intraperitoneal injection, while anti-PD-L1 monoclonal antibody was administered every three days via intraperitoneal injection for a 2-week treatment period. During the treatment period, mouse body weight and tumor diameter were measured daily. At the end of the experiment, mice were euthanized by cervical dislocation, and tumors were removed and weighed. Tumor volume (TV) was calculated using the formula: TV=½×a×b^2, where a represents the longest diameter of the tumor and b represents the shortest diameter.

[3] = system: inflammatory factors (TNF, IL-6, IL-1) in liver tissue; experiment: LPS-induced sepsis, hepatic inflammatory factor mRNA (Q-PCR); conditions: for Tnf mRNA expression, liver: LPS 8.92; for Il6 mRNA expression, liver: LPS 11.34; for Il1 mRNA expression, liver: LPS 11.52
Description: They were acclimated for 7 days before experimentation.
The normal and model groups received equal volumes of solvent (0.5% CMC-Na) via oral gavage.
Specimen Collection: One hour after the final drug administration, mice were euthanized by cervical dislocation. The abdominal cavity was opened, and the lungs, liver, and kidneys were removed. These organs were rinsed twice with pre-chilled PBS. Tissue samples were excised from the mouse lungs, left hepatic lobe, and kidneys. […] Remaining tissues were stored at −70° C. for future use.
Accurately weigh 20 mg of kidney, lung, and liver tissue. Rinse with pre-chilled PBS solution, cut into small pieces using ophthalmic scissors, and place into a glass homogenizer. Add 1 mL of Trizol reagent and grind to prepare tissue homogenate. Transfer the homogenate to a RNAse-free 1.5 mL EP tube and lyse on ice for 10 min. Add 200 μL chloroform, vortex vigorously, and let stand on ice for 3-5 min. Centrifuge at 12,000 rpm and 4° C. for 15 min. Carefully transfer the supernatant to a new RNAse-free 1.5 mL EP tube. Add an equal volume of pre-chilled isopropanol, incubate on ice for 30 min, then centrifuge at 12,000 rpm and 4° C. for 10 min. Discard the supernatant. […] Subsequently, dissolve the pellet in 10 μL DEPC-treated water. Dilute 1 μL of the total RNA solution 100-fold and measure the OD values at 260 nm and 280 nm using a full-wavelength microplate reader.
Following the method described in the kit manual, subsequent experiments were conducted using a 20 μL reverse transcription reaction system:
Primers were designed based on the nucleotide sequence of the mouse in GenBank and synthesized.
Perform subsequent experiments using a 20 μL reaction system according to the kit instructions:
After adding the above reagents to micro reaction tubes, seal them with the cap and place them in the Q-PCR instrument. Set the parameters according to the following reaction conditions to perform the amplification experiment.
Record the threshold cycle (Ct) values for each group and perform calculation and analysis using the 2^−ΔΔCt method (setting the expression level of the reference gene Gapdh as 1 to correct the expression levels of the target genes).
Data Statistics: All data are presented as Means±S.E.M. Analysis of variance (ANOVA) was performed to assess the significance of differences. Groups showing significant differences in ANOVA were further compared using one-way ANOVA and Dunnett's test. A P-value <0.05 was considered statistically significant.

[4] = system: serum creatinine and blood urea nitrogen; experiment: Folic acid-induced acute kidney injury, serum creatinine and urea; type: in vivo, C57BL/6 mice; set-up: unit not given here; conditions: folic acid acute model
Protocol: Except for the normal group, all other mice were administered folic acid (250 mg/kg) dissolved in 0.9% NaHCO3 solution via intraperitoneal injection to establish an acute kidney injury model.
The blood was allowed to stand at room temperature for 2 hours, then centrifuged at 3000 rpm for 20 minutes. Serum was aspirated, aliquoted, and stored at −70° C. for future use. Following blood collection, euthanize mice by cervical dislocation. Perform laparotomy to remove kidneys, dissect out perirenal fat and capsules. […] Paraffin-embedded specimens undergo HE staining; remaining tissue is stored at −70° C. for future use.
Serum Creatinine (Scr) and Blood Urea Nitrogen (BUN) Level Assay: 10 μL of serum from each sample was used for creatinine and urea level detection. Samples were added sequentially strictly following the kit instructions. After incubation at 37° C., absorbance values were measured using an enzyme-linked immunosorbent assay (ELISA) reader. The concentration levels of each indicator were calculated based on the standard curve.

Row | SMILES | ALT (serum ALT and AST; 1 mg/kg oral) | AST (serum ALT and AST; 1 mg/kg oral) | Kim-1 mRNA expression, kidney ([2]; 1 mg/kg gavage) | Ngal mRNA expression, kidney ([2]; 1 mg/kg gavage) | Kim-1 mRNA expression, kidney ([2]; 10 mg/kg gavage) | Ngal mRNA expression, kidney ([2]; 10 mg/kg gavage) | combination with anti-PD-L1 monoclonal antibody vs. single agents, H22 (H22 cells) | Tumor inhibition rate (%) (H22 cells) | Tumor weight (H22 cells) | Tnf mRNA expression, liver ([3]; 1 mg/kg oral) | Il6 mRNA expression, liver ([3]; 1 mg/kg oral) | Il1 mRNA expression, liver ([3]; 1 mg/kg oral) | BUN ([4]; 0.1 mg/kg oral) | Scr (serum creatinine) ([4]; 0.1 mg/kg oral) | BUN ([4]; 1 mg/kg oral) | also measured
1 | C=C1C(=O)O[C@@H]2[C@H]3C(C)=CC[C@@]34O[C@@]4(C)CC[C@@H]12 [Arg, Arglabin, reference compound] |  |  |  |  |  |  |  |  |  |  |  |  |  |  |  | IC50 for inhibiting H-Ras protein farnesylation [1]: only at the micromolar level
2 | CN(C)C[C@@H]1C(=O)O[C@H]2[C@H]1CC[C@@]1(C)C[C@]13CC[C@@](C)(O)[C@H]23 [Compound 20] | 85.02 ± 15.84 U/L | 153.34 ± 27.59 U/L | 1.68 ± 0.17 | 1.38 ± 0.17 | 0.64 ± 0.10 | 0.96 ± 0.13 | synergistic effect | 48.67% | 0.64 ± 0.09 g | 5.71 ± 0.61 | 3.93 ± 0.90 | 3.07 ± 0.29 |  |  |  | 
3 | CN(C)C[C@@H]1C(=O)O[C@H]2[C@H]1CC[C@@]1(C)C[C@]13CC[C@@](C)(O)[C@H]23 [Compound 21] | 95.82 ± 2.72 U/L | 215.82 ± 63.48 U/L |  |  |  |  |  |  |  | 7.12 ± 1.12 | 4.82 ± 0.69 | 4.22 ± 0.90 | 30.08 ± 3.03 | 90.69 ± 12.83 | 18.95 ± 2.58 | ALT (serum ALT and AST; 0.1 mg/kg oral): 132.32 ± 31.96 U/L; AST (serum ALT and AST; 0.1 mg/kg oral): 385.64 ± 28.70 U/L; Scr (serum creatinine) ([4]; 1 mg/kg oral, 1 mg/kg): 50.39 ± 7.65; Tnf mRNA expression, liver ([3]; 0.1 mg/kg oral): 7.78 ± 1.68; Il6 mRNA expression, liver ([3]; 0.1 mg/kg oral): 8.96 ± 0.70; Il1 mRNA expression, liver ([3]; 0.1 mg/kg oral): 10.32 ± 1.45
4 | CC1=C2CC[C@@](C)(OC(=O)N3CCCC3)[C@@H]2[C@H]2OC(=O)[C@@H](CN3CCCC3)[C@@H]2CC1 [Compound 103] |  |  | 0.98 ± 0.41 | 2.34 ± 0.39 | 0.75 ± 0.24 | 2.08 ± 0.34 | synergistic effect | 41.90% | 0.70 ± 0.08 g |  |  |  | 23.42 ± 13.11 | 74.95 ± 21.37 | 20.38 ± 10.82 | Scr (serum creatinine) ([4]; 1 mg/kg oral): 73.88 ± 14.26; BUN ([4]; 10 mg/kg oral): 17.72 ± 7.78; Scr (serum creatinine) ([4]; 10 mg/kg oral): 45.19 ± 7.41
